Experiments:
[1] = human, in vivo
[2] = Pharmacokinetics in patient blood samples, noncompartmental analysis; settings: versus patients without; P=0.016; Fig. S3
[3] = single-agent sacituzumab govitecan ref 35; cited from earlier work
[4] = test system: γH2AX foci in hair follicles; assay: γH2AX foci formation in hair follicles as marker of DNA double-strand breaks; format: in vivo, human; settings: hair follicles from eight patients
SCLC = settings: monotherapy, SCLC ref 45; cited from earlier work

Q: With `CCc1c2c(nc3ccc(O[C@@H]4O[C@H](C(=O)O)[C@@H](O)[C@H](O)[C@H]4O)cc13)-c1cc3c(c(=O)n1C2)COC(=O)[C@]3(O)CC` [SN-38G] as the compound, how does the “SN-38G Cmax in patients experiencing fatigue” value [1] read?
A: The value was “higher”.

Q: Which “SN-38 AUC in patients experiencing lymphopenia” value [2] does the source give for `CCc1c2c(nc3ccc(O)cc13)-c1cc3c(c(=O)n1C2)COC(=O)[C@]3(O)CC` [SN-38] here?
A: Its value is “higher”.

Q: With sacituzumab govitecan as the compound, how does the “Grade ≥ 3 neutropenia, fraction of patients” value [3] read?
A: Its value is “about one-third”.

Q: What about the “γH2AX foci in hair follicles following sacituzumab govitecan” value [4] of the same compound?
A: Its value is “substantial increase in the number and intensity of γH2AX foci”.

Q: What about the Tumor responses (SCLC) of the same compound?
A: Its Tumor responses is “led to tumor responses in SCLC”.

— paper PMC10524218 (Clinical cancer research : an official journal of the …, 2023)
